According to ChEMBL document CHEMBL2046359, “Novel tricyclic indeno[2,1-d]pyrimidines with dual antiangiogenic and cytotoxic activities as potent antitumor agents” (Bioorg Med Chem, 2012):

Experiments:
[1] = molecular target: Epidermal growth factor receptor (Homo sapiens, UniProt P00533); format: cell-based, A-431
[2] = molecular target: T1, Dihydroorotate dehydrogenase (Plasmodium falciparum, UniProt Q54A96); assay: Inhibition of Plasmodium falciparum DHODH
T1 sequence (Q54A96 whole entry): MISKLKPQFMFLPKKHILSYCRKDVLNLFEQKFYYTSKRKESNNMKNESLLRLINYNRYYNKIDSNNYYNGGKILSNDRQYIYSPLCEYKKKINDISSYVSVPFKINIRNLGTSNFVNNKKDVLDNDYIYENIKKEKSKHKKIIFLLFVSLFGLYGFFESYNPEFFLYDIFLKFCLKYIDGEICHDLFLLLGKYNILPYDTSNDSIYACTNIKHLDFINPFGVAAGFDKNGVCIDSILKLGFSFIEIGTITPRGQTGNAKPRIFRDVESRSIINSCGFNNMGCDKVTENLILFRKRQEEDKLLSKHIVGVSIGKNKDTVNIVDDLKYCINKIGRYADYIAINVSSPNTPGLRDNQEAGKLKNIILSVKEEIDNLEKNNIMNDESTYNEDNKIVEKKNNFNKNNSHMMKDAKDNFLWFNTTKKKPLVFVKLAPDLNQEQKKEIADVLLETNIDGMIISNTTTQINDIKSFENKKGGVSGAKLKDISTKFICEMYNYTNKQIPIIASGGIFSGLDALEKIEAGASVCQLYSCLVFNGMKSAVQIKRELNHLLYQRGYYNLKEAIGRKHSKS

[3] = molecular target: Dihydroorotate dehydrogenase (quinone), mitochondrial (Homo sapiens, UniProt Q02127); assay: Inhibition of human DHODH
Sequence of Dihydroorotate dehydrogenase (quinone), mitochondrial (Q02127 whole entry): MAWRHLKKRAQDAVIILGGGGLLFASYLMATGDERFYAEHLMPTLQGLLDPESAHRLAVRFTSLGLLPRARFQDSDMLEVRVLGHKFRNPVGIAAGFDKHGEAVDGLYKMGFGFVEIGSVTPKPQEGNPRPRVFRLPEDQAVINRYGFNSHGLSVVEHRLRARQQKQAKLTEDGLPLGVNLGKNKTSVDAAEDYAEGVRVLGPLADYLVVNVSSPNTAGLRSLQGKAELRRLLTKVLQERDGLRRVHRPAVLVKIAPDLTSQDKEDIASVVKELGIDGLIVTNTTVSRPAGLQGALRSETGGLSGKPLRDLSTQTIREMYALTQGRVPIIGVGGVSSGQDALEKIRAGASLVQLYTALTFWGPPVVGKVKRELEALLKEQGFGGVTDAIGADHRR

[4] = system: A-431; assay: Antiproliferative activity against human A431 cells after 48 hrs by CYQUANT assay; format: functional, cell-based; settings: A-431, 48 h
[5] = molecular target: Platelet-derived growth factor receptor beta (Homo sapiens, UniProt P09619); assay: Inhibition of PDGFRbeta in human SF539 cells pretreated for 60 mins measured after 10 mins by ELISA
Sequence of Platelet-derived growth factor receptor beta (P09619 whole entry): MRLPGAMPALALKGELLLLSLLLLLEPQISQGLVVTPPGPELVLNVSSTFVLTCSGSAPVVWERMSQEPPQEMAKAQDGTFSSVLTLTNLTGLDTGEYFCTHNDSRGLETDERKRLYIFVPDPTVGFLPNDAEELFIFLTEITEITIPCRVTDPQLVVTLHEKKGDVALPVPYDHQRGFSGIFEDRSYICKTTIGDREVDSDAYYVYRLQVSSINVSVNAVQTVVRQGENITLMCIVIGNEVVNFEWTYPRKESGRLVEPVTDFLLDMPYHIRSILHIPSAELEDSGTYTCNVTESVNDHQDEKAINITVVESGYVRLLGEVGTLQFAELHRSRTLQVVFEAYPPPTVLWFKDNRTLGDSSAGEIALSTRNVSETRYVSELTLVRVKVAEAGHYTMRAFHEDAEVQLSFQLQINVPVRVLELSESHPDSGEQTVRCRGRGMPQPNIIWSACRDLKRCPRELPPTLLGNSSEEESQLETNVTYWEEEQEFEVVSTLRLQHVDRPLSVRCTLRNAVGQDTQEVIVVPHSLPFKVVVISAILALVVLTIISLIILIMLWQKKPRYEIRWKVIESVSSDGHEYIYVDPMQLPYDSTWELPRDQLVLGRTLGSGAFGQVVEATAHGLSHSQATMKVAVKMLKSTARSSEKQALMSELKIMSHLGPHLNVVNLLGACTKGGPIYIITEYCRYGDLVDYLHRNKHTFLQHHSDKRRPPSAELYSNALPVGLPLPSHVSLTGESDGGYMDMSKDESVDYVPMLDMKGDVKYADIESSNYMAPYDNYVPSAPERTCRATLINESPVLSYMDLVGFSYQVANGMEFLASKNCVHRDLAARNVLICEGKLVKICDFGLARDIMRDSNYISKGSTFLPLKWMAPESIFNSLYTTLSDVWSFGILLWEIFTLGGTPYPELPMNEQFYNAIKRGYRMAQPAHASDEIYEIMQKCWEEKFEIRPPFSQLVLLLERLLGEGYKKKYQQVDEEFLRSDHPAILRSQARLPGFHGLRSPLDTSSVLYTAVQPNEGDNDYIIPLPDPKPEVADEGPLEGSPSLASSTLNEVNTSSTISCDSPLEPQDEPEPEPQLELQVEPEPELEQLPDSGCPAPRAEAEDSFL

[6] = molecular target: Vascular endothelial growth factor receptor 2 (Homo sapiens, UniProt P35968); format: cell-based, U-251
Sequence of Vascular endothelial growth factor receptor 2 (P35968 whole entry): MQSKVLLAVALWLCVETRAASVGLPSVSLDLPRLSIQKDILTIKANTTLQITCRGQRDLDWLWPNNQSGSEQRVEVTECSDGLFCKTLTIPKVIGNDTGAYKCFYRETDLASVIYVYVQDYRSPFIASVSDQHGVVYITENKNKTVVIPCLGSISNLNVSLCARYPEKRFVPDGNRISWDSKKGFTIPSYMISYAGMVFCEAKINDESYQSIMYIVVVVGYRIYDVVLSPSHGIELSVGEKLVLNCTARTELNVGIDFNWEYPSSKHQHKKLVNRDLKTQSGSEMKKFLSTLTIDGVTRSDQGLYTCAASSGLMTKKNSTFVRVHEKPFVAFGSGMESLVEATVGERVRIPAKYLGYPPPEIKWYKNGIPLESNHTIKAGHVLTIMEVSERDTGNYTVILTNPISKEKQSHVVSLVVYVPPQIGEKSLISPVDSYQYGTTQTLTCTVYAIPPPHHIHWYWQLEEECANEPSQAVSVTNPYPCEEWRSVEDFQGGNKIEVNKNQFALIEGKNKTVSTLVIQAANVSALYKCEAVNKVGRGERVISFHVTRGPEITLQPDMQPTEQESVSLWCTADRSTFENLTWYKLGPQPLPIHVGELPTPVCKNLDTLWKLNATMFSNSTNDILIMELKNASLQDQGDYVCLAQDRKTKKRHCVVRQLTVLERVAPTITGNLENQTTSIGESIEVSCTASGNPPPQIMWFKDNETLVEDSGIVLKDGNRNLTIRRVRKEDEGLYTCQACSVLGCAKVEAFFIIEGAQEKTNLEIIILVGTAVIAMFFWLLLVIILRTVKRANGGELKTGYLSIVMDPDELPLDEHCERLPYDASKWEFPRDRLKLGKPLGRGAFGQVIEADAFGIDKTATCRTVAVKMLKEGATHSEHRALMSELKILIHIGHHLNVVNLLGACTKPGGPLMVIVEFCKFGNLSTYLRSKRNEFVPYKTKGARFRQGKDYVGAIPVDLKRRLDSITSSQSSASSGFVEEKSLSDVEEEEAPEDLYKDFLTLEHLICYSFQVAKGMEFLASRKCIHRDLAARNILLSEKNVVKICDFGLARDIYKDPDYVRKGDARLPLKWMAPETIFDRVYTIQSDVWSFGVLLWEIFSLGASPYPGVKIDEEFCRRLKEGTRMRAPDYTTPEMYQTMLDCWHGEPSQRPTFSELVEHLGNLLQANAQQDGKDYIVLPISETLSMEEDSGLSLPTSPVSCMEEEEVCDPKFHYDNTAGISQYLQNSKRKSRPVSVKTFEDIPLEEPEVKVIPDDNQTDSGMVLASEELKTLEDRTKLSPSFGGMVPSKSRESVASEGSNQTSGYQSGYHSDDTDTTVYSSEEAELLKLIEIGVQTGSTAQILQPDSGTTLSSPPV

[7] = Antiangiogenic activity in VEGF/bFGF-stimulated chicken embryo after 48 hrs by CAM assay; format: functional, Gallus gallus
[8] = molecular target: T2, Bifunctional dihydrofolate reductase-thymidylate synthase (Toxoplasma gondii, UniProt Q07422); assay: Inhibition of Toxoplasma gondii thymidylate synthase
T2 sequence (Q07422 whole entry): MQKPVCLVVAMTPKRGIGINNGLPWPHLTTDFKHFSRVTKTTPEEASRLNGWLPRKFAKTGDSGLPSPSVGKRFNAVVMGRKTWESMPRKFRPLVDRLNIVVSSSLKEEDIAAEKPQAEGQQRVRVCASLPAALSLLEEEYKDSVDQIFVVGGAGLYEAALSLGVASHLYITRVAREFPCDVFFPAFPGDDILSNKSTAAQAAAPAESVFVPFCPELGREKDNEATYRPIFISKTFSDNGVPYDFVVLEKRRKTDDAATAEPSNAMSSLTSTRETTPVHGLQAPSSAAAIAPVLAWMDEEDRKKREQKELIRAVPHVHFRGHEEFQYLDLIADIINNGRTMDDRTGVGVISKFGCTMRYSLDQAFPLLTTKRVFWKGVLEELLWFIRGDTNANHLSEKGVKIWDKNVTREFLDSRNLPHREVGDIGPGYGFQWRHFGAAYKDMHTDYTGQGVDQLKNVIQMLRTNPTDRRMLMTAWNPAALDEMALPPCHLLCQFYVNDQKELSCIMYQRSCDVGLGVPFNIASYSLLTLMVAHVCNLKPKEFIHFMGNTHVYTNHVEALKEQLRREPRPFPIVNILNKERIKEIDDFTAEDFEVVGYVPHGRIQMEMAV

[9] = molecular target: T2, Bifunctional dihydrofolate reductase-thymidylate synthase; assay: Inhibition of Toxoplasma gondii DHFR
[10] = molecular target: T3, Dihydrofolate reductase (Homo sapiens, UniProt P00374)
T3 sequence (P00374 whole entry): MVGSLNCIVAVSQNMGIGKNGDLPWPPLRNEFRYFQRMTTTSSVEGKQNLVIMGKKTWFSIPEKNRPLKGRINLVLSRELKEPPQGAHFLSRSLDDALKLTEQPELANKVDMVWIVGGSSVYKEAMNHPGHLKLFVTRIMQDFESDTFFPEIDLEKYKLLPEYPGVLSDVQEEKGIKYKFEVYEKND

[11] = molecular target: Thymidylate synthase (Homo sapiens, UniProt P04818); assay: Inhibition of human thymidylate synthase
Sequence of Thymidylate synthase (P04818 whole entry): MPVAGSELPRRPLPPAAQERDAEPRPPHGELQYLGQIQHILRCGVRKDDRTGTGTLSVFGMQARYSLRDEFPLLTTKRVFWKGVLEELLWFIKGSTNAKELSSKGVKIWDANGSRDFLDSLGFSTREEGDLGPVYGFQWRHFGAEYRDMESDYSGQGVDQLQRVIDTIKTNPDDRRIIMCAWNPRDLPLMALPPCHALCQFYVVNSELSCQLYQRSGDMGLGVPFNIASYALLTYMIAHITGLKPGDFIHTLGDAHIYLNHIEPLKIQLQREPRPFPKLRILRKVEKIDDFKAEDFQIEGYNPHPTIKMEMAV

[12] = Inhibition of Escherichia coli thymidylate synthase

Sequence of Epidermal growth factor receptor (P00533 whole entry): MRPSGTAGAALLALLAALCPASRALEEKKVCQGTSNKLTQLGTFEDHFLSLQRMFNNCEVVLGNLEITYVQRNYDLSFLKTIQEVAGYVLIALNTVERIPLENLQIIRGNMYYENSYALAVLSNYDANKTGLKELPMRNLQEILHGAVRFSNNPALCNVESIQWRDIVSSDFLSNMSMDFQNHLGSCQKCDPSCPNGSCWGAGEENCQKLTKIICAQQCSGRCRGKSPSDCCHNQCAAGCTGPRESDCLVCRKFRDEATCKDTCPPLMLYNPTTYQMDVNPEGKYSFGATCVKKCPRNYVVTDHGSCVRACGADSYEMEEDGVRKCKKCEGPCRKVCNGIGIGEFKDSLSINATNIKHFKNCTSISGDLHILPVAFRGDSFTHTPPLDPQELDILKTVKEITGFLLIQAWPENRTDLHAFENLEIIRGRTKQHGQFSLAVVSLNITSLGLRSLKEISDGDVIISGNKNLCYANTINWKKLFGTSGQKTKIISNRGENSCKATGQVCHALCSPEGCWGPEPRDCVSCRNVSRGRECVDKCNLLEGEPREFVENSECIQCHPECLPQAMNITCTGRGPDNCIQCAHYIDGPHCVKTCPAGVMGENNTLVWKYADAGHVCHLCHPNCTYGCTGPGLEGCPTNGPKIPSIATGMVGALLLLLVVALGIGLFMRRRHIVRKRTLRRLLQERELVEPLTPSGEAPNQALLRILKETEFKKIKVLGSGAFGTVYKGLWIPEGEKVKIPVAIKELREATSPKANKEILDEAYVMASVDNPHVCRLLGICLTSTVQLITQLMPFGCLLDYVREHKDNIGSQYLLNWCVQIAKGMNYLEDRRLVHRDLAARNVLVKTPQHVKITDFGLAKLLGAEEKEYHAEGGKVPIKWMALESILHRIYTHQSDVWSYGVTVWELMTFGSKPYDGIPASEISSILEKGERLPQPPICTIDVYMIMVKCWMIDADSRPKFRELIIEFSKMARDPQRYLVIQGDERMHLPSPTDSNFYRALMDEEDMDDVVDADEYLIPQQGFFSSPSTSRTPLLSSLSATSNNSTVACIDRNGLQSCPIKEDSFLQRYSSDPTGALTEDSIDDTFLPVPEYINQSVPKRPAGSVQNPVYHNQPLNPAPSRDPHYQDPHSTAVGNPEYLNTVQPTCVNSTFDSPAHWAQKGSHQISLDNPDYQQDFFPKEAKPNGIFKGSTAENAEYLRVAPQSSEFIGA

| Compound | IC50 [1] | IC50 [2] | IC50 [3] | IC50 [4] | IC50 [5] | IC50 [6] | IC50 [7] | IC50 [8] | IC50 [9] | IC50 [10] | IC50 [11] | IC50 [12] |
| --- | --- | --- | --- | --- | --- | --- | --- | --- | --- | --- | --- | --- |
| Nc1nc2c(c(Nc3cccc(F)c3)n1)-c1ccccc1C2 | > 300 µM | > 200 µM | > 200 µM | 9.8 µM | – | – | – | – | – | – | – | – |
| Nc1nc2c(c(Nc3ccc(Br)cc3)n1)-c1ccccc1C2 | – | – | – | 103 µM | 38.9 µM | 30.1 µM | 19.1 µM | – | – | – | – | – |
| Nc1nc2c(c(Nc3ccc(F)cc3)n1)-c1ccccc1C2 | 276 µM | – | – | 50.3 µM | 5.9 µM | 89.3 µM | 46.7 µM | – | – | – | – | – |
| Nc1nc2c(c(Nc3cccc(Br)c3)n1)-c1ccccc1C2 | – | > 200 µM | > 200 µM | > 500 µM | – | > 200 µM | – | > 12 µM | > 14 µM | > 14 µM | > 12 µM | > 12 µM |
| Nc1nc2c(c(Nc3ccccc3)n1)-c1ccccc1C2 | > 200 µM | > 200 µM | > 200 µM | 4.9 µM | – | – | – | – | – | – | – | – |
| Nc1nc2c(c(Nc3ccc(C(F)(F)F)cc3)n1)-c1ccccc1C2 | > 300 µM | – | – | 306 µM | 23.1 µM | > 200 µM | 8.1 µM | – | – | – | – | – |
| CC(C)c1ccc(Nc2nc(N)nc3c2-c2ccccc2C3)cc1 | – | – | – | 126 µM | – | – | – | > 14 µM | > 16 µM | > 16 µM | > 14 µM | > 14 µM |
